Results: publication PMC11551755, “Structure-based discovery of first inhibitors targeting the helicase activity of human PIF1” (Nucleic Acids Research, 2024)
Where two headings read alike, the source gives them in different places.

Biological target: T1, hPIF1HD (Homo sapiens, UniProt Q9H611)
T1 construct: the hPIF1HD construct starts at residue Gln 206 and ends at Leu 620; hexa-histidine tag (N, cleaved yes); made in house; host or cells: ArcticExpress BL21(DE3) E. coli (Agilent Technologies)
T1 sequence (Q9H611 206-620): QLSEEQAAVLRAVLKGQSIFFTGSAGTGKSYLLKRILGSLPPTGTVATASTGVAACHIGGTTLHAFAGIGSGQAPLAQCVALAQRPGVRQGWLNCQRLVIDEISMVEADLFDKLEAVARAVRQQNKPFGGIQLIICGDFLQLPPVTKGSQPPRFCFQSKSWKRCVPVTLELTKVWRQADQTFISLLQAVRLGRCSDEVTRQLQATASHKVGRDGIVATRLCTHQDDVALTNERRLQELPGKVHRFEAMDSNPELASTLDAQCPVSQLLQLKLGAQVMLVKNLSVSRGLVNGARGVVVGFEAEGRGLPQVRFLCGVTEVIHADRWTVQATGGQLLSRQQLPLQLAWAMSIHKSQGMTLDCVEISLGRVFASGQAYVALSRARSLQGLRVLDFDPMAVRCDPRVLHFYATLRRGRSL
Assay: ssDNA d(T)55 binding assay (EMSA), wild-type hPIF1HD
Conditions: 5 mM AMP-PNP, read-out: IC50 for inhibition of hPIF1HD ssDNA binding, WT
Method: DNA binding of hPIF1HD was assayed using a ^32P-5′ end-labelled oligo d(T)55 substrate (0.25 nM), under the same buffer conditions described for helicase assays, but with AMP-PNP instead of ATP. Reaction products were resolved on 5% poly-acrylamide gels (29:1 acrylamide:bis-acrylamide) using 0.25× TBE running buffer ([19],[28]). Gels were processed and reaction products quantified by phosphorimaging and IC50 values determined as described above.
In the hPIF1HD/AMP-PNP/1 structure, the compound 1 binding site is largely between domains 2A and 2B and is absent in the modelled hPIF1HD-ssDNA complex (Figure 2), due to the large relative movement of domain 2B required for ssDNA binding, with or without bound nucleotide ([19],[34],[35],[47]). […] To test this, we assayed binding to a radiolabelled oligo d(T)55 substrate under helicase reaction conditions, with AMP-PNP instead of ATP, in the presence of the same SMIs selected for helicase IC50 analysis (Table 1). hPIF1HD was used rather than FLhPIF1 to eliminate the non-specific DNA binding activity of the N-terminal domain ([27],[29]), and complexes were resolved by gel electrophoresis (electrophoretic mobility shift assay, EMSA). […] With an increasing concentration of compound 1C (or other analogues of 1) or a derivative, progressive inhibition of ssDNA binding was observed, allowing determination of IC50 values for most compounds tested. It was not possible to obtain data for compounds 3, 7, 8 and 9 due to retention of substrate in the gel wells, possibly due to low solubility of the compounds (Supplementary Figure S10).
Figure 4. Inhibition of hPIF1HD ssDNA binding by compound 1 and derivatives. Binding reactions were assembled under helicase reaction conditions but with 0.25 nM radiolabelled oligo d(T)55, 2 nM hPIF1HD, 5 mM AMP-PNP and 0.0078–2 mM SMI. Products were resolved by EMSA for quantification and IC50 determination (n = 3 repeats). Bound ssDNA was calculated as the sum of the major and minor species, interpreted as one or two bound hPIF1HD molecules respectively. See also Supplementary Figure S10. IC50 values are given along with those determined for hPIF1HD variants V258A and V258L (see Supplementary Figure S12). TEXT PRINTED IN THE PICTURE: 1C: IC50 (μM): N.D. | 1E: IC50 (μM): N.D. | 2: IC50 (μM): WT: 224 ± 86; IC50 (μM): V258A: 103 ± 31; IC50 (μM): V258L: 304 ± 88 | 4: IC50 (μM): N.D. | 5: IC50 (μM): WT: 198 ± 54; IC50 (μM): V258A: 79.2 ± 27; IC50 (μM): V258L: 414 ± 45 | 6: IC50 (μM): WT: 722 ± 194; IC50 (μM): V258A: 295 ± 116; IC50 (μM): V258L: 1010 ± 282 | 10: IC50 (μM): WT: 224 ± 59; IC50 (μM): V258A: 152 ± 42; IC50 (μM): V258L: 378 ± 99 | 11: IC50 (μM): WT: 284 ± 110; IC50 (μM): V258A: 151 ± 51; IC50 (μM): V258L: 551 ± 215

[1] = 0.25 nM d(T)55, 2 nM hPIF1HD, 0.0078–2 mM SMI, n = 3

Row | SMILES | IC50 (as printed in Supplementary Figure 12 legend, 2 nM hPIF1HD) [µM] | IC50 [1] [µM]
1 | CC(=O)c1ccc(-c2csc(N)n2)cc1 [Compound 2] | 224 ± 86 | 
2 | N#Cc1ccc(-c2csc(N)n2)cc1 [Compound 5] |  | 198 ± 54
3 | Nc1nc(-c2ccc(C(=O)c3ccccc3)cc2)cs1 [Compound 6] |  | 722 ± 194
4 | CC(=O)Nc1ccc(-c2csc(N)n2)cc1-c1ccc(C)cc1 [Compound 10] |  | 224 ± 59
5 | CC(=O)Nc1ccc(-c2csc(N)n2)cc1C1=CCNCC1 [Compound 11] |  | 284 ± 110
